# Patent US20070185161A1, “Bicyclic substituted indole-derivative steroid hormone nuclear receptor modulators” (priority 2004, published 2007)
# Biological target: T1, human MR (Homo sapiens, UniProt P08235)
# T1 construct: The full length human MR gene is cloned from a human kidney or human brain cDNA library; made in house; host or cells: SF9 insect cells (baculovirus)
# T1 sequence (P08235 1-984): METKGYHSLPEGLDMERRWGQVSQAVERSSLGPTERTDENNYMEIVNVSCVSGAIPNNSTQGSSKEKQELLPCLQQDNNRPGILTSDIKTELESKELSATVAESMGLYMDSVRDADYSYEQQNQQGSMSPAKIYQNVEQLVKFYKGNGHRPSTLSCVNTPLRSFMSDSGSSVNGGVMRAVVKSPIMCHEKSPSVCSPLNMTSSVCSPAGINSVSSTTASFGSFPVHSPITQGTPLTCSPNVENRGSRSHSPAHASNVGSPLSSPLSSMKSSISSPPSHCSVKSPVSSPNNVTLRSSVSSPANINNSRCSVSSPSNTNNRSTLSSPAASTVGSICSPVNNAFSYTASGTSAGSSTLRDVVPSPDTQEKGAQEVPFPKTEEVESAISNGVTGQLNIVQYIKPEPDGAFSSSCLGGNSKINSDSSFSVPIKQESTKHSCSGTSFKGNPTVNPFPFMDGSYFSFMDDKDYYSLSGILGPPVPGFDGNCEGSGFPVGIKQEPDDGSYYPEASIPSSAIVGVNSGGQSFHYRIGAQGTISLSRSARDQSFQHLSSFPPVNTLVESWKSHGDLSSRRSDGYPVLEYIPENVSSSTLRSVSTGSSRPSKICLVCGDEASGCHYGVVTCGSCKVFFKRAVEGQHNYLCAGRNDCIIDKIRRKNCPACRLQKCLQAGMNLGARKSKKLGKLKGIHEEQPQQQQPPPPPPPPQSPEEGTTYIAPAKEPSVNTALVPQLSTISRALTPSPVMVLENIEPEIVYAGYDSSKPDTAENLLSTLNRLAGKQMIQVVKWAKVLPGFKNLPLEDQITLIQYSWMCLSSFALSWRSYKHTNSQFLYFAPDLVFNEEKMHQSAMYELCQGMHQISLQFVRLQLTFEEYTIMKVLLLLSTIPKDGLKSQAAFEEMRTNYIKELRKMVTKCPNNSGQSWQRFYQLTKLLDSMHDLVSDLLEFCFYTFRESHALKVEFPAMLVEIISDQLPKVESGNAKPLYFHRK
# Test: Mineralocorticoid Receptor Binding Assay (Method 1)
# Details: [3H]-aldosterone, racemic mixture unless otherwise indicated
# Description: The full length human MR gene is cloned from a human kidney or human brain cDNA library. Briefly, using synthetic oligonucleotide primers (Eli Lilly and Company, Indianapolis) directed to nucleotides 20-54 and 3700-3666 of the human MR, polymerase chain reaction (PCR) is performed under standard conditions using a human cDNA library. The PCR reaction is performed in a final volume of 50 μl containing about 1 μl of a 50× stock solution of polymerase; about 1 μl of a 50× stock solution of dNTP; about 5 μl of an appropriate PCR buffer; about 1 μl of each primer; about 5 μl of a H. kidney or H. brain cDNA library; and about 36 μl of water. The reaction is allowed to denature for about 30 seconds at 95 degrees Celsius, anneal for about 30 seconds at 55 degrees Celsius, and extend for about 5 minutes at 72 degrees Celsius, the sequence being repeated for a total of about 35 cycles. The desired PCR product (3.68 Kb) is confirmed by gel electrophoresis and subsequently cut from the gel and stored at about −20 degrees Celsius until extraction. To extract the cDNA product from the agarose gel, the QIAEX II Gel Extraction protocol (QIAGEN, Inc.) is employed according to the manufacturer's instructions. Following extraction, the MR cDNA is cloned into an appropriate cloning vector (Zero Blunt TOPO PCR Cloning Kit (Invitrogen, Inc.) and a pAcHLT-baculovirus transfer vector (B.D./Pharminogen), then expressed in SF9 insect cells, essentially according to manufacturer's instructions. Sf9 cells are grown at a scale where gram quantity cell pellets are obtained for subsequent use in the MR binding assay. Harvested cell pellets are lysed by repeated freeze-thaw cycles (about 4) in a suitable lysis buffer then centrifuged at about 1×10^3 G (with the supernatant being saved for future assays).
# MR binding assays are performed in a final total volume of about 250 μl containing about 20-25 μg of protein and 0.5 nM of [^3H]-aldosterone plus varying concentrations of test compound or vehicle. The assay binding buffer consists of 30 mM sodium molybdate, 30 mM of TRIS-HCl, 5 mM sodium phosphate, 5 mM sodium pyrophosphate, and about 10% glycerol, pH=7.5.
# Briefly, assays are prepared at RT in 96-well Falcon 3072 plates, each well containing 210 μl of binding buffer, 10 μl of [^3H]-aldosterone, 10 μl of test compound/vehicle, and 20 μl of the resuspended receptor protein extract. Incubations are carried out at 4 degrees Celsius with shaking for about 16 hours. 200 μl aliquots of each incubation are filtered onto Millipore HA 0.45 micron 96-well filter plates, pre-moistened with cold 30 mM TRIS-HCl. The filter plates are suctioned dry with vacuum and immediately washed 3× with cold 30 mM TRIS-HCl. The plates are then punched out and the amount of receptor-ligand complex is determined by liquid scintillation counting using 4 ml of Ready Protein Plus™ liquid scintillation cocktail.
# IC50 values (defined as the concentration of test compound required to decrease [^3H]-aldosterone binding by 50%) are then determined. Ki values for each respective test compound can then be calculated by application of the Cheng-Prusoff equation as described in Cheng et al., Relationship Between The Inhibition Constant (Ki) and The Concentration of Inhibitor Which Causes 50% Inhibition (IC50) of an Enzymatic Reaction, Biochem. Pharmacol., 22: 3099-31088; (1973).
row,SMILES,Ki [nM]
1,"CC1(c2c[nH]c3c(NS(C)(=O)=O)cccc23)CCOc2cc(F)ccc21 (single isomer, unassigned) [Example 34B, N-[3-(7-Fluoro-4-methyl-chroman-4-yl)-1H-indol-7-yl]-methanesulfonamide]",≤ 500
2,"CCC1(c2c[nH]c3c(NS(C)(=O)=O)cccc23)CCOc2cc(F)ccc21 (single isomer, unassigned) [Example 35A, N-[3-(4-Ethyl-7-fluoro-chroman-4-yl)-1H-indol-7-yl]-methanesulfonamide]",≤ 500
3,"CCC1(c2c[nH]c3c(NS(C)(=O)=O)cccc23)CCOc2cc(F)ccc21 (single isomer, unassigned) [Example 35B, N-[3-(4-Ethyl-7-fluoro-chroman-4-yl)-1H-indol-7-yl]-methanesulfonamide]",≤ 500
4,"CCC1(c2c[nH]c3c(NS(C)(=O)=O)cccc23)CCOc2cc(F)cc(F)c21 (single isomer, unassigned) [Example 36A, N-[3-(4-Ethyl-5,7-difluoro-chroman-4-yl)-1H-indol-7-yl]-methanesulfonamide]",≤ 500
5,"CCC1(c2c[nH]c3c(NS(C)(=O)=O)cccc23)CCOc2cc(F)cc(F)c21 (single isomer, unassigned) [Example 36B, N-[3-(4-Ethyl-5,7-difluoro-chroman-4-yl)-1H-indol-7-yl]-methanesulfonamide]",≤ 500
6,"CS(=O)(=O)Nc1cccc2c(C3(C4CC4)CCc4cc(F)ccc43)c[nH]c12 (single isomer, unassigned) [Example 39A, N-[3-(1-Cyclopropyl-5-fluoro-indan-1-yl)-1H-indol-7-yl]-methanesulfonamide]",≤ 500
7,"CS(=O)(=O)Nc1cccc2c(C3(C4CC4)CCc4cc(F)ccc43)c[nH]c12 (single isomer, unassigned) [Example 39B, N-[3-(1-Cyclopropyl-5-fluoro-indan-1-yl)-1H-indol-7-yl]-methanesulfonamide]",≤ 500
8,"CS(=O)(=O)Nc1cccc2c(C3(CCCO)CCc4cc(F)ccc43)c[nH]c12 (single isomer, unassigned) [Example 40A, N-{3-[5-Fluoro-1-(3-hydroxy-propyl)-indan-1-yl]-1H-indol-7-yl}-methanesulfonamide]",≤ 500
9,"CS(=O)(=O)Nc1cccc2c(C3(CCCO)CCc4cc(F)ccc43)c[nH]c12 (single isomer, unassigned) [Example 40B, N-{3-[5-Fluoro-1-(3-hydroxy-propyl)-indan-1-yl]-1H-indol-7-yl}-methanesulfonamide]",≤ 500
10,"CCC1(c2c[nH]c3c([N+](=O)[O-])cccc23)CCc2cc(F)ccc21 (stereo not drawn) [Example 2, 3-(1-Ethyl-5-fluoro-indan-1-yl)-7-nitro-1H-indole]",≤ 500
11,"CCC1(c2cn(C)c3c(NS(C)(=O)=O)cccc23)CCc2cc(F)ccc21 (stereo not drawn) [Example 5, N-[3-(1-Ethyl-5-fluoro-indan-1-yl)-1-methyl-1H-indol-7-yl]-methanesulfonamide]",≤ 500
12,"CCC1(c2c[nH]c3c(N)cccc23)CCc2cc(F)ccc21 (stereo not drawn) [Example 14, 3-(1-Ethyl-5-fluoro-indan-1-yl)-1H-indol-7-ylamine]",≤ 500
13,"CCC1(c2c[nH]c3c(NC(=O)OC)cccc23)CCc2cc(F)ccc21 (stereo not drawn) [Example 15, [3-(1-Ethyl-5-fluoro-indan-1-yl)-1H-indol-7-yl]-carbamic acid methyl ester]",≤ 500
14,"CCC1(c2c[nH]c3c(NC(C)=O)cccc23)CCc2cc(F)ccc21 (stereo not drawn) [Example 16, N-[3-(1-ethyl-5-fluoro-indan-1-yl)-1H-indol-7-yl]-acetamide]",≤ 500
15,CCC1(c2c[nH]c3c(NS(=O)(=O)N(C)C)cccc23)CCc2cc(F)ccc21 (stereo not drawn) [Example 17],≤ 500
16,"CCC1(c2c[nH]c3c(NS(=O)(=O)c4ccccc4)cccc23)CCc2cc(F)ccc21 (stereo not drawn) [Example 18, N-[3-(1-ethyl-5-fluoro-indan-1-yl)-1H-indol-7-yl]-benzenesulfonamide]",≤ 500
17,"CCC1(c2c[nH]c3c(NS(=O)(=O)CC)cccc23)CCc2cc(F)ccc21 (stereo not drawn) [Example 19, Ethanesulfonic acid [3-(1-ethyl-5-fluoro-indan-1-yl)-1H-indol-7-yl]-amide]",≤ 500
18,"CC1(c2c[nH]c3c(NS(C)(=O)=O)cccc23)CCc2ccccc21 (stereo not drawn) [Example 20, N-[3-(1-Methyl-indan-1-yl)-1H-indol-7-yl]-methanesulfonamide]",≤ 500
19,"CC1(c2c[nH]c3c(NS(C)(=O)=O)cccc23)CCc2cc(-n3cccn3)ccc21 (stereo not drawn) [Example 24, N-[3-(1-Methyl-5-pyrazol-1-yl-indan-1-yl)-1H-indol-7-yl]-methanesulfonamide]",≤ 500
20,"CS(=O)(=O)Nc1cccc2c(C3CCCc4ccccc43)c[nH]c12 (stereo not drawn) [Example 25, N-[3-(1,2,3,4-Tetrahydro-naphthalen-1-yl)-1H-indol-7-yl]-methanesulfonamide]",≤ 500
21,"CC1(c2c[nH]c3c(NS(C)(=O)=O)cccc23)CCCc2ccccc21 (stereo not drawn) [Example 26, N-[3-(1-Methyl-1,2,3,4-tetrahydro-naphthalen-1-yl)-1H-indol-7-yl]-methanesulfonamide]",≤ 500
22,"CCC1(c2c[nH]c3c(NS(C)(=O)=O)cccc23)CCCc2ccccc21 (stereo not drawn) [Example 27, N-[3-(1-Ethyl-1,2,3,4-tetrahydro-naphthalen-1-yl)-1H-indol-7-yl]-methanesulfonamide]",≤ 500
23,"CC1(c2c[nH]c3c(NS(C)(=O)=O)cccc23)CCOc2ccccc21 (stereo not drawn) [Example 32, N-[3-(4-Methyl-chroman-4-yl)-1H-indol-7-yl]-methanesulfonamide]",≤ 500
24,"CC1(c2c[nH]c3c(NS(C)(=O)=O)cccc23)CCOc2ccc(F)cc21 (stereo not drawn) [Example 33, N-[3-(6-Fluoro-4-methyl-chroman-4-yl)-1H-indol-7-yl]-methanesulfonamide]",≤ 500
25,"CC1(c2c[nH]c3c(NS(C)(=O)=O)cccc23)CCSc2ccccc21 (stereo not drawn) [Example 37, N-[3-(4-Methyl-thiochroman-4-yl)-1-indol-7-yl]-methanesulfonamide]",≤ 500
26,"CC1(c2c[nH]c3c(NS(C)(=O)=O)cccc23)CCCCc2ccccc21 (stereo not drawn) [Example 38, N-[3-(5-Methyl-6,7,8,9-tetrahydro-5H-benzocyclohepten-5-yl)-1H-indol-7-yl]-methanesulfonamide]",≤ 500
27,"CS(=O)(=O)Nc1cccc2c(C3(CCCI)CCc4cc(F)ccc43)c[nH]c12 (stereo not drawn) [Example 41, N-{3-[5-Fluoro-1-(3-iodo-propyl)-indan-1-yl]-1H-indol-7-yl}-methanesulfonamide]",≤ 500
